From PMC7354438 (Viruses, 2020)
Structures can show the parent of a compound that is named as a salt.

Columns and labels:
[1] = tested on: hCoV-19/Norway/Trondheim-E9/2020; test: Drug test: viability of SARS-CoV-2-infected Vero-E6 cells (CellTiter-Glo); type: cell-based; parameters: AUC: unit not given beside the values
[2] = Cytotoxicity in mock-infected Vero-E6 cells (CellTiter-Glo); settings: African green monkey
[3] = tested on: viral genomic and sub-genomic RNAs; test: Gene expression analysis (RNA sequencing) of drug-treated infected Vero-E6 cells; type: cell-based, SARS-CoV-2; settings: moi 0.1, 24 h, 3 M nelfinavir, 5 M amodiaquine or both
[4] = Drug combination test, mock-infected Vero-E6 cells (CTG); type: cell-based; settings: African green monkey, mock-infected Vero-E6 cells (control), read-out: Relative viability (%); for viability at 72 h, 0.008 uM: single drug 0.008 uM (other drug 0); for viability at 72 h, 0.04 uM: single drug 0.04 uM (other drug 0); for viability at 72 h, 0.2 uM: single drug 0.2 uM (other drug 0); for viability at 72 h, 1 uM: single drug 1.0 uM (other drug 0); for viability at 72 h, 5 uM: single drug 5.0 uM (other drug 0)
[5] = Severe acute respiratory syndrome coronavirus 2, Vero C1008, infected Vero-E6 cells, moi 0.1, 72 h, Mean ± SD, n = 3
[6] = Severe acute respiratory syndrome coronavirus 2, Vero C1008, 72 h
[7] = area under the dose-response curve of viability of virus-infected Vero-E6 cells, moi 0.1, 72 h, 7 concentrations, decimal comma

Q: Which EC50 [1, 5] does the source give for `COC1=CC(c2cc3ccccc3[nH]2)=N/C1=C\c1[nH]c(C)cc1C` [Obatoclax (Mesylate), Obatoclax] here?
A: 300 ± 100 nM

Q: And the CC50 at 72 h ([2]; mock-infected Vero-E6 cells)?
A: 2200 ± 1000 nM

Q: For `CCN(CC)Cc1cc(Nc2ccnc3cc(Cl)ccc23)ccc1O` [Amodiaquine], which “transcription of viral genomic and sub-genomic RNAs” value [3] is on record?
A: lowered the transcription of viral genomic and sub-genomic RNAs

Q: What about the EC50 [1, 5] of the same compound?
A: 4200 ± 200 nM

Q: What about the viability at 72 h, 0.008 uM [4] of the same compound?
A: 89.1%

Q: What about the viability at 72 h, 0.04 uM [4] of the same compound?
A: 91.8%

Q: What about the viability at 72 h, 0.2 uM [4] of the same compound?
A: 76.4%

Q: What about the viability at 72 h, 1 uM [4] of the same compound?
A: 76.6%

Q: What about the viability at 72 h, 5 uM [4] of the same compound?
A: 71.5%

Q: What about the CC50 at 72 h ([2]; mock-infected Vero-E6 cells) of the same compound?
A: > 30000 nM

Q: Which results are given for `Cc1c(O)cccc1C(=O)N[C@@H](CSc1ccccc1)[C@H](O)CN1C[C@H]2CCCC[C@H]2C[C@H]1C(=O)NC(C)(C)C` [Nelfinavir]?
A: EC50 [1, 5]: 2100 ± 600 nM; viability at 72 h, 0.008 uM [4]: 100%; viability at 72 h, 0.04 uM [4]: 100%; viability at 72 h, 0.2 uM [4]: 96.5%; viability at 72 h, 1 uM [4]: 90.2%; viability at 72 h, 5 uM [4]: 80.7%; CC50 at 72 h ([2]; mock-infected Vero-E6 cells): 9700 ± 400 nM

Q: With `COC(=O)C[C@](O)(CCCC(C)(C)O)C(=O)O[C@@H]1C(OC)=C[C@]23CCCN2CCc2cc4c(cc2[C@H]13)OCO4` [Homoharringtonine] as the compound, how does the EC50 [1, 5] read?
A: 30 ± 20 nM

Q: What about the CC50 at 72 h ([2]; mock-infected Vero-E6 cells) of the same compound?
A: 360 ± 600 nM

Q: Which EC50 [1, 6] does the source give for `CC[C@@H](C(=O)[C@@H](C)[C@@H](O)[C@H](C)[C@@H]1O[C@@H]([C@@H](CC)C(=O)O)CC[C@@H]1C)[C@H]1O[C@]2(C=C[C@@H](O)[C@]3(CC[C@@](C)([C@H]4CC[C@](O)(CC)[C@H](C)O4)O3)O2)[C@H](C)C[C@@H]1C` [Salinomycin] here?
A: 200 ± 100 nM

Q: And the CC50 at 72 h [2]?
A: 13900 ± 300 nM

Q: For `Nc1ccn([C@@H]2O[C@H](CO)[C@@H](O)C2(F)F)c(=O)n1` [Gemcitabine], which AUC [1, 7] is on record?
A: 92,89

Q: With `CC(C)c1nc(CN(C)C(=O)N[C@H](C(=O)N[C@@H](Cc2ccccc2)C[C@H](O)[C@H](Cc2ccccc2)NC(=O)OCc2cncs2)C(C)C)cs1` [Ritonavir] as the compound, how does the AUC [1, 7] read?
A: 137,69

Q: With `CC[C@@]1([C@@H]2O[C@@H]([C@H]3O[C@@](O)(CO)[C@H](C)C[C@@H]3C)C[C@@H]2C)CC[C@H]([C@]2(C)CC[C@]3(C[C@H](O)[C@@H](C)[C@@H]([C@@H](C)[C@@H](OC)[C@H](C)C(=O)O)O3)O2)O1` [Monensin] as the compound, how does the AUC ([1]; 72 h) read?
A: 254,31

Q: Which AUC [1, 7] does the source give for `O=C1O[C@H]([C@@H](O)CO)C(O)=C1O` [Ascorbic acid] here?
A: 108,5

Q: With `C/C(O)=C(\C#N)C(=O)Nc1ccc(C(F)(F)F)cc1` [Teriflunomide] as the compound, how does the AUC [1, 7] read?
A: 72,87

Q: Which AUC [1, 7] does the source give for `Nc1nc(O)c2ncn(COC(CO)CO)c2n1` [Ganciclovir] here?
A: 243,88

Q: With `NC(=O)c1nc(F)c[nH]c1=O` [Favipiravir (T-705), Favipiravir] as the compound, how does the AUC [1, 7] read?
A: 136,64

Q: Which AUC ([1]; 72 h) does the source give for `C[C@H]1O[C@@H](O[C@H]2CC[C@@]3(C)[C@@H](CC[C@]4(C)[C@@H]3C=C[C@]35OC[C@@]6(CCC(C)(C)C[C@H]63)[C@@H](O)C[C@]54C)[C@]2(C)CO)[C@H](O)[C@@H](O[C@@H]2O[C@H](CO)[C@@H](O)[C@H](O)[C@H]2O)[C@H]1O` [Saikosaponin A] here?
A: 77

Q: Which AUC ([1]; 72 h) does the source give for `CN[C@@H]1C[C@H]2O[C@@](C)([C@@H]1OC)n1c3ccccc3c3c4c(c5c6ccccc6n2c5c31)C(=O)NC4` [Staurosporine] here?
A: 15,75

Q: With `CC(=O)Oc1ccccc1C(=O)O` [Acetylsalicylic acid] as the compound, how does the AUC [1, 7] read?
A: 131,04

Q: For `CN[C@H](CC(C)C)C(=O)N[C@H]1C(=O)N[C@@H](CC(N)=O)C(=O)N[C@H]2C(=O)N[C@H]3C(=O)N[C@H](C(=O)N[C@H](C(=O)O)c4cc(O)cc(O)c4-c4cc3ccc4O)[C@H](O[C@H]3C[C@](C)(N)[C@@H](O)[C@H](C)O3)c3ccc(c(Cl)c3)Oc3cc2cc(c3O[C@@H]2O[C@H](CO)[C@@H](O)[C@H](O)[C@H]2O[C@H]2C[C@](C)(NCc3ccc(-c4ccc(Cl)cc4)cc3)[C@@H](O)[C@H](C)O2)Oc2ccc(cc2Cl)[C@H]1O` [Oritavancin], which AUC ([1]; 72 h) is on record?
A: 163,24

Q: With `CC[C@H]1CN2CCc3cc(OC)c(OC)cc3[C@@H]2C[C@@H]1C[C@H]1NCCc2cc(OC)c(OC)cc21` [Emetine] as the compound, how does the EC50 [1, 6] read?
A: < 10 nM

Q: And the CC50 at 72 h [2]?
A: 700 ± 400 nM

Q: With `CN(Cc1cc(Br)cc(Br)c1N)C1CCCCC1` [Bromhexine HCl] as the compound, how does the AUC [1, 7] read?
A: 124,95

Q: Which AUC ([1]; 72 h) does the source give for `CC[C@H](CO)Nc1nc(NCc2ccccc2)c2ncn(C(C)C)c2n1` [Roscovitine] here?
A: 137,97

Q: Which AUC [1, 7] does the source give for `CCCCOc1cc(C(=O)NCCN(CC)CC)c2ccccc2n1` [Dibucaine] here?
A: 214,34

Q: For `COc1ccc2[nH]c([S+]([O-])Cc3ncc(C)c(OC)c3C)nc2c1` (centres unmarked) [Omeprazole], which AUC [1, 7] is on record?
A: 139,02

Q: For `O=c1[nH]c(=O)n([C@H]2C[C@H](O)[C@@H](CO)O2)cc1C(F)(F)F` [Trifluridine], which AUC [1, 7] is on record?
A: 107,17

Q: Which AUC [1, 7] does the source give for `O=c1cc(-c2ccc(O)c(O)c2)oc2cc(O)cc(O)c12` [Luteolin] here?
A: 119,07

Q: With `CC(C)COCC(CN(Cc1ccccc1)c1ccccc1)N1CCCC1` (centres unmarked) [Bepridil] as the compound, how does the AUC [1, 7] read?
A: 285,95

Q: With `CNCCC(Oc1ccc(C(F)(F)F)cc1)c1ccccc1` (centres unmarked) [Fluoxetine] as the compound, how does the AUC [1, 7] read?
A: 104,37

Q: Which AUC [1, 7] does the source give for `O=C(c1ccc(OCCN2CCCCC2)cc1)c1c(-c2ccc(O)cc2)sc2cc(O)ccc12` [Raloxifene] here?
A: 199,57

Q: With `CCCCNc1cc(C(=O)O)cc(S(N)(=O)=O)c1Oc1ccccc1` [Bumetanide] as the compound, how does the AUC [1, 7] read?
A: 87,85

Q: With `COc1cccc(N2CCN(C3=Nc4c(F)cccc4[C@H](CC(=O)O)N3c3cc(C(F)(F)F)ccc3OC)CC2)c1` [Letermovir] as the compound, how does the AUC [1, 7] read?
A: 134,12

Q: For `CN(C)C(=N)N=C(N)N` [Metformin (1,1-Dimethylbiguanide), 1,1-Dimethylbiguanide], which AUC [1, 7] is on record?
A: 116,76

Q: Which AUC [1, 7] does the source give for `CC[C@@]1(O)C(=O)OCc2c1cc1n(c2=O)Cc2cc3c(CN(C)C)c(O)ccc3nc2-1` [Topotecan] here?
A: 124,6
